Reference: patent US20160299130A1, “Telocinobufagin (TCINO) in the Diagnosis and Pathogenesis of Preeclampsia, Traumatic Brain Injury and Acute Respiratory Distress Syndrome” (priority 2015, published 2016)

Experiments:
[1] = in vitro; cited from earlier work
[2] = system: rodent brain contusion model; test: rodent brain contusion model; format: in vivo; settings: given 1 hour after the insult
From the text: (§1) MBG is elevated in preeclampsia and traumatic brain injury. It has been shown that the administration of the antagonist of MBG, resibufagenin (RBG) is therapeutically effective. […] RBG antagonizes MBG activity and may be an effective treatment for hypertension, ARDS, traumatic brain injury, and preeclampsia.

[3] = system: animal models of preeclampsia; test: preeclampsia in animal models; format: in vivo
From the text: as §1

Row | SMILES | vasoconstrictor action [1] | tissue injury [2] | preeclampsia [3]
1 | C[C@]12CC[C@H](O)C[C@@]1(O)CC[C@@H]1[C@@H]2CC[C@]2(C)[C@@H](c3ccc(=O)oc3)C[C@H]3O[C@]132 [MBG, marinobufagenin] | acts in vitro as a vasoconstrictor |  | 
2 | C[C@]12CC[C@H](O)C[C@H]1CC[C@@H]1[C@@H]2CC[C@]2(C)[C@@H](c3ccc(=O)oc3)C[C@H]3O[C@]132 [RBG, resibufagenin] |  | amelioration of tissue injury | prevents preeclampsia
